Reference: patent publication US20230355578A1, “PHARMACEUTICAL COMBINATIONS OF STATINS AND FIBRATES FOR THE TREATMENT AND PREVENTION OF […] AND CARDIOVASCULAR DISEASE” (LABORATORIOS SILANES S.A. DE C.V., priority 2020, published 2023)
Read-outs that look alike come from different tables or passages of the source.

Legend:
[1] = cited from earlier work
[2] = Particle size distribution by laser beam diffraction; type: physicochemical
Experimental: The determination of the particle size distribution by laser beam diffraction for micronized fenofibrate was carried out using a DPS module in a particle size analyzer.
Determination of particle size distribution by laser beam diffraction was carried out for micronized fenofibrate by placing 0.5 g of the raw material in a sample holder and using a DPS module in the particle size analyzer to obtain an obscuration of 4-7%. The determination is made in duplicate.

cytochrome P450 = details: Wong, 2006, Yamazaki, 2005; cited from earlier work
P-gp = P-gp (Homo sapiens, UniProt P08183); details: Wong, 2006, Yamazaki, 2005; cited from earlier work
OATP1B1 = target: T1, OATP1B1 (Homo sapiens, UniProt Q9Y6L6); details: Wong, 2006, Yamazaki, 2005; cited from earlier work
T1 sequence (Q9Y6L6 1-691): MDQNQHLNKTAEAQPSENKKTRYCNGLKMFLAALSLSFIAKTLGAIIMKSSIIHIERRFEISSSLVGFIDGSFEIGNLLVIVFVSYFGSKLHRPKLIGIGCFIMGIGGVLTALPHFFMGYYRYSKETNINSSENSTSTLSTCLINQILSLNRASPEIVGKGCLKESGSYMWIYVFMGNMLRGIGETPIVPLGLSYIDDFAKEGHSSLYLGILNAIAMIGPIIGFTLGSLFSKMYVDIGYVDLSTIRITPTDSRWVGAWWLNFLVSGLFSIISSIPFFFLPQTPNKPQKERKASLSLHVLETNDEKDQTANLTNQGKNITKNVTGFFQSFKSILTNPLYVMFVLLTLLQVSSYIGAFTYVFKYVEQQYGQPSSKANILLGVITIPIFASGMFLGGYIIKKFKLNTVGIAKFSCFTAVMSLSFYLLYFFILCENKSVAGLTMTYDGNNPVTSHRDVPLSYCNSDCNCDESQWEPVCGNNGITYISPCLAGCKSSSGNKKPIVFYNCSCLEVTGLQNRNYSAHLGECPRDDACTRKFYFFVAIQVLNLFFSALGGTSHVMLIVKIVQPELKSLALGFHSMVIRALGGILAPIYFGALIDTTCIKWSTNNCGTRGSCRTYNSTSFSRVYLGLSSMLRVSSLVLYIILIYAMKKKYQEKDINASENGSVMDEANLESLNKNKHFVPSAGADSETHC

P-gp, sequence (P08183 whole entry): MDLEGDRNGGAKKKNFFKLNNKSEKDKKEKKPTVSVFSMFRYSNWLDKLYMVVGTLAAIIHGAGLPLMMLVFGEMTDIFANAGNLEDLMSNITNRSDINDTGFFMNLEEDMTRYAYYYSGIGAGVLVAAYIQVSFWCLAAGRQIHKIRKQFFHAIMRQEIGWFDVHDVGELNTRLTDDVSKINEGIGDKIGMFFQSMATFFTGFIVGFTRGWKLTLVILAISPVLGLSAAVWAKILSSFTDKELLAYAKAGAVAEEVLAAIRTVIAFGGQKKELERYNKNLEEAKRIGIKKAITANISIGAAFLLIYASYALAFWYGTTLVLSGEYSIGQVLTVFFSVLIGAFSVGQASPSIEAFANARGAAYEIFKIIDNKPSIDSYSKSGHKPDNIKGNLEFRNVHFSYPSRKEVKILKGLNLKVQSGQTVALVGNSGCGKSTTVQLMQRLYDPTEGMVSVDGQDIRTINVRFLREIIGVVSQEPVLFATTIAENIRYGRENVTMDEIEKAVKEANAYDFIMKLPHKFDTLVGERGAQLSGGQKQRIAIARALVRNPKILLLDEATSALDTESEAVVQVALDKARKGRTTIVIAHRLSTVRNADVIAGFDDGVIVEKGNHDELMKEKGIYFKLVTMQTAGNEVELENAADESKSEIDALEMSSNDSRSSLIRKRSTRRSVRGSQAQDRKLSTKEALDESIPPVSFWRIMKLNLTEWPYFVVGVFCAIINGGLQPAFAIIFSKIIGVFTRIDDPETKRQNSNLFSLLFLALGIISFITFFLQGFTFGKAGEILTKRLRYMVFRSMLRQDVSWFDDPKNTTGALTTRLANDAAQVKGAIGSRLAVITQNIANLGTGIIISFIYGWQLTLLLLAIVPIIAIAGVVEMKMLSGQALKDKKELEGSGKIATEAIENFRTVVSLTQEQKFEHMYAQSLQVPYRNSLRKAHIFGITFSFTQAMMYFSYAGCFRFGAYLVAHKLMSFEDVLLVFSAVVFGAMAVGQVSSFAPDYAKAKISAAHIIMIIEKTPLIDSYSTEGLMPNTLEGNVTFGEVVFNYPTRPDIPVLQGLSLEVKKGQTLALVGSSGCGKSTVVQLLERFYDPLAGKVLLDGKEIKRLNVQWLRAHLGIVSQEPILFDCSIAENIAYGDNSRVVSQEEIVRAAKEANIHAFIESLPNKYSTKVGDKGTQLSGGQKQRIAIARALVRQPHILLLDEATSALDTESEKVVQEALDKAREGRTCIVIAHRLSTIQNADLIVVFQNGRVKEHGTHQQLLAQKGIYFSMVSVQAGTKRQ

Row | SMILES | concentrations reported in the literature ([1]; Chou, 2013) [ng/mL] | particle size distribution (100%) [2] | particle size distribution (d10) [2] [μm] | particle size distribution (d50) [2] [μm] | particle size distribution (d90) [2] [μm] | metabolism via cytochrome P450 (cytochrome P450) | inhibition of P-gp-mediated transport (P-gp) | drug-drug interaction potential by inhibition of OATP1B1 (OATP1B1) | concentrations reported in the literature ([1]; Back, 2018, Moffat, 2011)
1 | CC(C)c1c(C(=O)Nc2ccccc2)c(-c2ccccc2)c(-c2ccc(F)cc2)n1CC[C@@H](O)C[C@@H](O)CC(=O)O [atorvastatin] | 2.5 to 50.1 |  |  |  |  |  |  |  | 
2 | CC(C)OC(=O)C(C)(C)Oc1ccc(C(=O)c2ccc(Cl)cc2)cc1 [fenofibrate] |  | less than 30 μm | ≤ 0.95 | ≤ 5.35 | ≤ 11.28 | are not metabolized via cytochrome P450 | do not significantly inhibit P-gp-mediated transport | do not have a potential to cause a clinically significant drug-drug interaction by inhibition of OATP1B1 | 
3 | CC(C)(Oc1ccc(C(=O)c2ccc(Cl)cc2)cc1)C(=O)O [fenofibric acid] |  |  |  |  |  | are not metabolized via cytochrome P450 | do not significantly inhibit P-gp-mediated transport | do not have a potential to cause a clinically significant drug-drug interaction by inhibition of OATP1B1 | 3.17-30 μm/mL
